Source: paper PMC12785453, “Oral Fluid Concentrations and Pharmacological Effects of Clephedrone and Methylone in Humans” (International Journal of Molecular Sciences, 2025)

Experiments:
[1] = Oral fluid concentrations of clephedrone (GC-MS/MS); format: in vivo, humans; settings: both sexes, human, 100 or 150 mg oral
Method: (§1) This study consisted of one experimental session in which participants (N = 8; 6 women, 2 men) selected their oral dose of clephedrone based on their drug use experience and preferences. According to their dose selection, 3 women and 1 man ingested 100 mg of clephedrone, while the remaining 3 women and 1 man opted for a higher dose of 150 mg. […] Participants were recruited by word of mouth by the harm reduction organization Energy Control in Barcelona (Associació Benestar i Desenvolupament, ABD).
In both studies, oral fluid samples for the quantification of clephedrone and methylone concentration were collected using Salivette standard tubes. For clephedrone, oral fluid samples were collected at baseline, 0.50, 1, 1.5, 2, 3, 4, and 5 h, whereas for methylone, they were collected at baseline, 0.25, 0.50, 0.75, 1, 1.5, 2, 3, 4, 6, 8, and 10 h. After collection, all samples were centrifuged and stored frozen at −20 °C until analysis. Clephedrone oral fluid concentrations were determined using a previously validated gas chromatography coupled to mass spectrometry systems (GC-MS/MS). Methylone was quantified via liquid chromatography–tandem mass spectrometry (LC–MS/MS).
For oral fluid concentrations of clephedrone and methylone, only a descriptive analysis was performed to obtain the main pharmacokinetics data, including the maximum concentration (Cmax), the time required to reach maximum concentrations (Tmax), and AUC up to 5 h (AUC0–5h) for clephedrone and up to 6 h (AUC0–6h) for methylone. These parameters were calculated using the Pharmacokinetic Functions for Microsoft Excel (Joel Usansky, Atul Desai, and Diane Tang-Liu, Department of Pharmacokinetics and Drug Metabolism, Allergan, Irvine, CA, USA). Oral cortisol concentrations after clephedrone were analyzed using Dunnett’s multiple comparison test (each time point with baseline).

[2] = tested on: healthy volunteers; assay: Physiological effects (SBP, DBP, HR, T), naturalistic observational clephedrone study; format: in vivo, humans
Description: The study evaluating the acute effects of clephedrone was designed as a non-controlled, prospective, observational, and naturalistic study. The procedures and evaluations included in this study have been described in previous studies evaluating other synthetic cathinones (mephedrone, methylone, alpha-PVP, NEP, HEXEN), phenethylamines (2C-B and 2C-E), or synthetic cannabinoids (JWH-122, JWH-210, UR-144).
as §1
Participants of the naturalistic clephedrone study were summoned at 15:00 h at the private club where sessions were carried out. The club remained closed to the public until the end of the session, approximately at 21:00 h. As a naturalistic study, participants were left free to talk, read, play games, or listen to music in the time between study evaluations. To avoid possible influences between participants, they were asked to refrain from talking about the effects of the self-administered substance. The experimental sessions of the controlled pilot trial were carried out at the Clinical Research Unit (UPIC) of the Germans Trias i Pujol hospital, where participants were summoned at 7:45 a.m. after fasting overnight and remained there for approximately 11 h.
In the naturalistic clephedrone study, non-invasive systolic blood pressure (SBP), diastolic blood pressure (DBP), and heart rate (HR) were assessed, while subjects remained seated with an automatic Omron monitor (Omron, Healthcare, Kyoto, Japan) at baseline, 0.50, 1, 1.5, 2, 3, 4 and 5 h (h) after self-administration. Forehead cutaneous temperature was determined at the same time points using a cutaneous infrared thermometer.
For statistical analysis, values of physiological (SBP, DBP, HR, and T) and subjective effects (VAS, ARCI, and VESSPA-SSE) were baseline–adjusted. Maximum effects (Emax) and the time needed to reach maximum effects (Tmax) were determined, and the area under the curve up to 5 h (AUC0–5h) for clephedrone and up to 6 h (AUC0–6h) for methylone was calculated using the trapezoidal rule. Emax and AUC values are presented as mean ± standard deviation, whereas Tmax is presented in median (range).
To find possible significant changes through the time course compared to baseline, a Dunnett multiple comparison test was carried out to compare each time point with baseline in both drug conditions. For clephedrone the comparisons were 0–0.5 h, 0–1 h, 0–1.5 h, 0–2 h, 0–3 h, 0–4 h and 0–5 h, and for methylone this analysis included 0–0.25 h, 0–0.5 h, 0–0.75 h, 0–1 h, 0–1.5 h, 0–2 h, 0–3 h, 0–4 h and 0–6 h. Given their different study designs, no comparative analysis between the time courses of both synthetic cathinones was conducted.

[3] = 100 or 150 mg oral, n=8, listed as clephedrone
[4] = AUC0–5h, 100 or 150 mg oral, n=8

SMILES: CNC(C)C(=O)c1ccc(Cl)cc1 (stereo not drawn) [Clephedrone, 4-chloromethcathinone]
- Cmax ([1]; n=8): 6410 ± 3490 ng/mL
- Tmax ([1]; n=8): 3 h
- AUC(0-t) ([1]; n=8, read-out: Oral fluid AUC0–5 h): 10700 ng·h/mL
- Onset of cardiovascular effects after self-administration ([2]; 100 or 150 mg oral): 2 h
- Tmax of maximum effects on SBP, DBP and HR ([2]; 100 or 150 mg oral): 2.5 to 3.0 h
- DBP Emax ([2]; 100 or 150 mg oral, n=8): 13.63 ± 11.74 mmHg
- HR Emax ([2]; 100 or 150 mg oral, n=8): 17.19 ± 25.17 bpm
- SBP Emax ([2]; 100 or 150 mg oral, n=8): 16.81 ± 13.11 mmHg
- DBP Emax [2, 3]: 13.6 mmHg
- HR Emax [2, 3]: 17.19 bpm
- HR Tmax [2, 3]: 3 h
- SBP Emax [2, 3]: 16.81 mmHg
- DBP AUC0-5/6 h [2, 4]: 32.64 ± 22.06 mmHg·h
- HR AUC0-5/6 h [2, 4]: 37.20 ± 40.72 bpm·h
- SBP AUC0-5/6 h [2, 4]: 41.77 ± 13.86 mmHg·h
- T AUC0-5/6 h ([2]; AUC0–5h, forehead cutaneous temperature, 100 or 150 mg oral, n=8): 1.25 ± 1.05 °C·h
- Tolerability, serious adverse events ([2]; all administered doses (100 or 150 mg oral)): well tolerated
- T Emax ([2]; forehead cutaneous temperature, 100 or 150 mg oral, n=8): 0.63 ± 0.35 °C
